Tests used:
YUMC-P1 cell line [1] = experiment: MTT cell viability of anticancer drug-resistant cancer cell line; assay type: cell-based, human; conditions: 200 μM, drug alone
YUMC-P1 cell line [2] = conditions: YUMC-P1 xenograft mice; oral, 13 times for 41 days; doses of Table 3
Description: (§1) 15 days after injection of each of the cell lines, when the tumor volume reached about 100 to 200 mm^3, mice having a tumor with the above volume were randomly grouped (n=10/group), and then each drug was administered to the mice 13 times for a total of 41 days under the conditions shown in Table 3 below. Then, the changes in tumor volume during this administration were measured, and the results of the measurement are shown in FIG. 3. In addition, the tumor was extracted and the net weight of the tumor was measured, and the results of the measurement are shown in FIG. 4. Here, nothing was administered to the control group.

YUMC-H2 cell line [3] = conditions: YUMC-H2 xenograft mice; oral, 13 times for 41 days; doses of Table 3
Description: as §1

YUMC-H2 cell line [4] = experiment: MTT cell viability of anticancer drug-resistant cancer cell line; assay type: cell-based, human; conditions: 200 μM, drug alone
YUMC-C1 cell line [5] = conditions: 200 μM, drug alone
Description: Each of the YUMC-C1, YUMC-H2 and YUMC-P1 cell lines of Example 1 was inoculated into 96-well plates at a density of 6×10^3 cells/well and then cultured overnight to a confluence of 90%. […] However, when hydroflumethiazide was used in combination with oxaliplatin or sorafenib, the treatment concentration of each of oxaliplatin and sorafenib was 30 μM. Thereafter, cell viability was measured using the MTT reagent. The absorbance was measured at 550 nm, and viable cells were counted using trypan blue staining.

YUMC-C1 cell line [6] = conditions: YUMC-C1 xenograft mice; oral, 13 times for 41 days; doses of Table 3; vs control group
Description: as §1

**Q.** `CNC(=O)c1cc(Oc2ccc(NC(=O)Nc3ccc(Cl)c(C(F)(F)F)c3)cc2)ccn1` [sorafenib] was tested. Which cells survived (YUMC-P1 cell line [1]) did it give?
**A.** The cells survived was “more than 80%”.

**Q.** And the net tumor weight (YUMC-P1 cell line [2])?
**A.** Its net tumor weight is “no significant changes”.

**Q.** What about the tumor volume (YUMC-P1 cell line [2]) of the same compound?
**A.** The tumor volume was “no significant changes”.

**Q.** And the net tumor weight (YUMC-H2 cell line [3])?
**A.** The net tumor weight was “no significant changes”.

**Q.** And the tumor volume (YUMC-H2 cell line [3])?
**A.** The tumor volume was “no significant changes”.

**Q.** What about the cells survived (YUMC-H2 cell line [4]) of the same compound?
**A.** Its cells survived is “more than 80%”.

**Q.** Which results are given for `O=C1[O][Pt]2([NH][C@@H]3CCCC[C@H]3[NH]2)[O]C1=O` [oxaliplatin]?
**A.** cells survived (YUMC-C1 cell line [5]): more than 80%; net tumor weight (YUMC-C1 cell line [6]): did not significantly decrease; tumor volume (YUMC-C1 cell line [6]): did not significantly decrease

Source: US20240016812A1, “COMPOSITION FOR PREVENTING, ALLEVIATING OR TREATING CANCER” (CKP Therapeutics, Inc., priority 2021, published 2024)
